{
  "source": "patent US20220167627A1",
  "about": "“Microbial preparation of bacillus” (priority 2020, published 2022)",
  "key": {"rice seedlings": {"tested_on": "rice seedlings", "experiment": "IAA sensitivity test on rice seedlings", "format": "in vivo", "description": "Taking rice and lettuce for example, IAA sensitivity of the microbial preparation is tested in steps of: disinfecting and germinating rice seedlings; putting the rice seedlings in a sterilized Petri dish in which a filter paper is disposed; […]; moving the sterilized Petri dish into a plant growth box for 4 days; measuring an average height of buds of the rice seedlings and an average height of roots of the rice seedlings;"}, "lettuce": {"tested_on": "lettuce", "experiment": "IAA sensitivity test on lettuce", "format": "in vivo", "description": "Taking rice and lettuce for example, IAA sensitivity of the microbial preparation is tested in steps of: disinfecting seeds of the lettuce with 5% sodium hypochlorite and putting the seeds of the lettuce in another sterilized Petri dish in which a filter paper is disposed; adding 3 mL of 0.03 μM, 3 μM, 30 μM, and 300 μM of IAA aqueous solutions respectively; moving another sterilized Petri dish into another plant growth box for 3 days; and measuring a germination rate and a height of each lettuce and a length of a root of each lettuce."}},
  "data": [
    {"smiles": "O=C(O)Cc1c[nH]c2ccccc12", "note": "[IAA]", "values": [
      {"measurement": "growth of the roots of the rice seedlings", "setting": "rice seedlings; IAA 0.03 μM to 30 μM, 4 days, FIG. 1", "value": "does not promote a growth of the roots"},
      {"measurement": "growth of the roots of the rice seedlings", "setting": "rice seedlings; IAA 300 μM, 4 days, FIG. 1", "value": "limited"},
      {"measurement": "growth of the roots of the rice seedlings", "setting": "rice seedlings; IAA within 0.00003 μM to 0.003 μM", "value": "do not grow obviously"},
      {"measurement": "growth of the lettuce seedlings", "setting": "lettuce; IAA 0.03 μM (lowest concentration), 3 days", "value": "reduces a growth of the lettuce seedlings"},
      {"measurement": "height of lettuce sprouts", "setting": "lettuce; IAA 0.03 μM, 3 days (no IAA: 5.3 mm)", "value": 3.5, "unit": "mm"},
      {"measurement": "length of lettuce roots", "setting": "lettuce; IAA 0.03 μM, 3 days (no IAA: 14.8 mm)", "value": 8.8, "unit": "mm"},
      {"measurement": "germination rate of seeds of the lettuce", "setting": "lettuce; IAA 300 μM, 3 days (no IAA: 78%)", "value": 13, "unit": "%"}
    ]}
  ]
}
